In PubChem BioAssay (NCI):
Values joined by “and” are separate entries in the source; they are usually repeats but may differ in a detail not shown here. Equal values may be shown once.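 Tested at 5 concentrations; 48 h exposure; 96-well plates; endpoints linearly interpolated, else capped at highest concentration. GI50 = concentration required for 50% inhibition of growth. TGI is the concentration that stops growth completely.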

How the values were obtained:
Assay in all cases: inhibition of tumour cell growth, NCI panel, 48 h
[1] = tested on: DU-145 prostate
[2] = tested on: HCT-116 colon
[3] = tested on: M14 melanoma
[4] = tested on: MOLT-4 leukemia
[5] = tested on: NCI-H460 lung
[6] = tested on: SF-539 CNS
[7] = tested on: T-47D breast
[8] = tested on: TK-10 renal
[9] = tested on: HT29 colon
[10] = tested on: UACC-257 melanoma

Compound	GI50 [1]	GI50 [2]	GI50 [3]	GI50 [4]	TGI [4]	GI50 [5]	GI50 [6]	GI50 [7]	GI50 [8]	TGI [1]	TGI [2]	GI50 [9]	TGI [9]	TGI [3]	TGI [5]	TGI [6]	TGI [7]	TGI [8]	GI50 [10]	TGI [10]
C=CCN1CC2CON(C(=O)C(OC)(c3ccccc3)C(F)(F)F)C2C1C(C)C (stereo not drawn)	54 µg/mL	24.2 µg/mL	30.3 µg/mL	15 µg/mL	46.6 µg/mL	28.9 µg/mL	66.5 µg/mL	34.5 µg/mL	99.3 µg/mL											
COc1ccc(/C=C(/c2ccccc2)[N+](=O)[O-])cc1	1.65 µM	1.03 µM	1.42 µM	2.18 µM	6.28 µM	2.04 µM	1.77 µM	1.2 µM	1.98 µM	3.05 µM	2.29 µM	2.04 µM	11.3 µM	2.85 µM	4.16 µM	3.18 µM	4.5 µM	3.93 µM	1.6 µM	3.4 µM
CC1C(=O)OC2CC[N+]3([O-])CC=C(COC(=O)C(C)(O)C1(C)O)C23 (stereo not drawn)					> 100 µM					> 100 µM	> 100 µM		> 100 µM	> 100 µM	> 100 µM	> 100 µM	> 100 µM	> 100 µM		> 100 µM
C=CCn1c2c(sc1=S)C(S)N=CN2 (stereo not drawn)					> 100 µM						> 100 µM		> 100 µM	> 100 µM	> 100 µM	> 100 µM		> 100 µM		> 100 µM
N#CC(C(=O)CCC(=O)Nc1cccc(C(F)(F)F)c1)c1ccc(Cl)cc1 (stereo not drawn)					> 100 µM						> 100 µM		> 100 µM	> 100 µM	> 100 µM	> 100 µM		> 100 µM		> 100 µM
CC(C)(C)OC(=O)N1N=NC2C1C1CC(OCc3ccccc3)(OCc3ccccc3)C2O1 (stereo not drawn)					> 100 µM								> 100 µM	> 100 µM	> 100 µM					63.7 µM
O=C1CSC(c2ccc(-c3nc4ccccc4s3)cc2)=N1	67 µM	24.7 µM	38.6 µM			30.2 µM		90.9 µM	17.5 µM	> 100 µM	> 100 µM			> 100 µM	74.5 µM		> 100 µM	65.1 µM	30.8 µM	75.7 µM
CCOC(=O)Cn1c(=O)n(C)c(=O)c2c1ncn2Cc1ccccc1					> 100 µM						> 100 µM		> 100 µM	> 100 µM	> 100 µM	> 100 µM		> 100 µM		
O=C1C(=O)N(c2cc(Cl)ccc2Cl)C(=O)C(=O)C1c1nc2ccccc2o1					> 100 µM						> 100 µM		> 100 µM	> 100 µM	> 100 µM	> 100 µM		> 100 µM		> 100 µM
CCN(CC)c1cc2oc3cc(N)cc(=N)c-3nc2cc1C	2.2 µM	1.83 µM	2.25 µM			3.41 µM	3.44 µM	5.04 µM	4.9 µM	4.92 µM	5.69 µM	3.49 µM	15.6 µM	4.92 µM	17 µM	14.2 µM	43.8 µM	23.1 µM	3.11 µM	34 µM
COc1cc(C2C(C(=O)Nc3cc(F)c(F)cc3F)=C(C)NC(C)=C2C(=O)Nc2cc(F)c(F)cc2F)ccc1O					45.2 µM								> 100 µM	> 100 µM	> 100 µM	59.6 µM		87.9 µM		54.8 µM
Oc1ccc(Br)cc1C=Nc1ccc(N=Cc2cc(Br)ccc2O)cc1					> 100 µM						> 100 µM		> 100 µM	> 100 µM	> 100 µM	> 100 µM		> 100 µM		> 100 µM
COC(=O)/C(=C\c1ccc(N(CCC#N)CCC#N)cc1)NC(=O)c1cc([N+](=O)[O-])ccc1Cl					> 100 µM						> 100 µM		> 100 µM	> 100 µM	> 100 µM	> 100 µM		> 100 µM		> 100 µM
CCOc1ccccc1NC(=O)C(C#N)C1=C(Cl)C(=O)c2ccccc2C1=O (stereo not drawn)					3.32 µM	3.45 µM			12.3 µM		3.38 µM and 3.93 µM	14 µM		3.05 µM and 3.14 µM	3.27 µM and 15.1 µM	3.64 µM and 3.54 µM		3.84 µM and 25.8 µM	2.22 µM	2.25 µM and 6.7 µM
O=C(O)C12CC3(C(=O)O)CC(C(=O)O)(CC(C(=O)O)(C1)C3=O)C2=O					> 100 µM					> 100 µM	> 100 µM		> 100 µM	> 100 µM	> 100 µM		> 100 µM	> 100 µM		> 100 µM
OCC(O)CNc1ccnc2cc(Cl)ccc12 (stereo not drawn)					> 100 µM						> 100 µM		> 100 µM	> 100 µM	> 100 µM	> 100 µM		> 100 µM		> 100 µM
Cc1cccc(C)c1NC(=O)C(=O)CC(=O)c1cccc([N+](=O)[O-])c1					> 100 µM						> 100 µM		> 100 µM	> 100 µM	> 100 µM	> 100 µM		> 100 µM		> 100 µM
Cc1cc(C(C)(C)C)cc(Cc2cc(C(C)(C)C)cc(Cc3cc(C(C)(C)C)cc(C)c3O)c2O)c1O					10.6 µM						10.2 µM		24 µM	20.5 µM	21.8 µM	23.6 µM		30 µM		20.8 µM
CCCCc1c2c(nc3c1CCC/C3=C\c1ccccc1)/C(=C/c1ccccc1)CCC2					> 100 µM						> 100 µM		> 100 µM	> 100 µM	> 100 µM	> 100 µM		> 100 µM		> 100 µM
CC(=O)OC1C2CCC1C1C2C2(Cl)C(Cl)=C(Cl)C1(Cl)C2(Cl)Cl (stereo not drawn)					26.4 µM						27.8 µM		28 µM	25.3 µM	27.4 µM	30.7 µM		28.8 µM		27.4 µM
COC1=C(Br)C(=O)c2nc(C)ccc2C1=O					> 20.8 µM						21.1 µM		34.9 µM	28.4 µM	31.7 µM	36.1 µM		32.4 µM		26.6 µM
CCC(=O)Nc1ccc(N=NN(C)C)cc1					43.4 µM					> 100 µM	> 100 µM		> 100 µM	> 100 µM	> 100 µM	> 100 µM	30.4 µM			> 100 µM

Compound	GI50 [1]	GI50 [2]	GI50 [3]	GI50 [4]	TGI [4]	GI50 [5]	GI50 [6]	GI50 [7]	GI50 [8]	TGI [1]	TGI [2]	GI50 [9]	TGI [9]	TGI [3]	TGI [5]	TGI [6]	TGI [7]	TGI [8]	GI50 [10]	TGI [10]
Nc1ccc2nc3n(c2c1)C(=O)c1ccccc1-3					> 100 µM					> 100 µM	> 100 µM		> 100 µM	> 100 µM	> 100 µM	> 100 µM		> 100 µM		> 100 µM
COc1cc(C(=O)C/C(CCC(=O)Nc2ccc(Cl)cc2Cl)=N/NC(=O)C(=O)NN)ccc1O											> 100 µM		> 100 µM	> 100 µM	> 100 µM	> 100 µM		> 100 µM		> 100 µM
O=S1(=O)OCCOS(=O)(=O)C1Cl					> 100 µM						> 100 µM		> 100 µM	> 100 µM		> 100 µM		> 100 µM		> 100 µM
CC(=O)OCCOCNC(=S)N/N=C/c1ccc(Br)s1					> 100 µM						> 100 µM		> 100 µM	> 100 µM	> 100 µM	> 100 µM		> 100 µM		> 100 µM
Clc1cc(Cl)cc(Nc2ccc3cc(OCCCN4CCOCC4)ccc3n2)c1	3.05 µM			1.77 µM	5.81 µM			3.01 µM	2.88 µM	> 100 µM		1.56 µM	3.74 µM				14.1 µM	8.21 µM	1.96 µM	4.34 µM
C/C(CCn1[nH]c(=O)ccc1=O)=N\OCCCc1ccccc1					> 100 µM						> 100 µM		> 100 µM	> 100 µM	> 100 µM	> 100 µM		> 100 µM		> 100 µM
c1ccc(CSc2nc3ccccc3nc2-c2cccs2)cc1					> 100 µM						> 100 µM		> 100 µM	> 100 µM	> 100 µM	> 100 µM		> 100 µM		> 100 µM
CCOc1ccccc1NC(=O)C(=O)Cc1nc2ccccc2s1					> 100 µM						> 100 µM		> 100 µM	> 100 µM	> 100 µM	> 100 µM		> 100 µM		> 100 µM
[F][Sn]([F])([c]1ccccc1)[c]1ccccc1		1.5 µM	2.08 µM	1.17 µM	5.22 µM	2.27 µM	2.13 µM		1.89 µM		3.26 µM	1.78 µM	3.85 µM	4.45 µM	4.97 µM	4.09 µM		3.44 µM	1.56 µM	3.2 µM
O=C(O)CSc1n[nH]c(Cc2ccccc2)n1					> 100 µM						> 100 µM		> 100 µM	> 100 µM	> 100 µM	> 100 µM		> 100 µM		> 100 µM
COc1ccc2c(c1)C(C)Cc1c(ncnc1-n1cnc3cc(C)ccc31)N2C (stereo not drawn)	0.325 µM	0.0736 µM	0.067 µM	0.247 µM	12.9 µM	0.128 µM				12.1 µM	14.9 µM	0.174 µM	0.611 µM	13.6 µM	10.3 µM				0.158 µM	20.8 µM
CC1CN1c1c(C(=O)/C=C/c2ccc(Cl)cc2)c(-c2ccccc2)nn(C)c1=O (stereo not drawn)					8.02 µM						6.47 µM		> 10 µM	5.63 µM	4.12 µM	4.14 µM		8.94 µM		> 10 µM
CN(C)CCSc1nccc(-c2cc3ccccc3s2)n1					66.1 µM						50.9 µM		24.3 µM	32.3 µM	28 µM	37.2 µM				
Clc1ccc(N=CNc2ccc(-c3nc4ccccc4o3)cc2)cc1	14 µM	> 100 µM	56.4 µM	60.7 µM	> 100 µM	17.1 µM	14.8 µM	13.1 µM	21 µM	38.2 µM	> 100 µM			> 100 µM	40.3 µM	45.7 µM	52.1 µM	54.2 µM	32.4 µM	> 100 µM
Nc1ccc2[nH]cc(CCC(=O)O)c2c1					> 100 µM					> 100 µM	> 100 µM		> 100 µM	> 100 µM		> 100 µM	> 100 µM	> 100 µM		> 100 µM
O=c1c2ccccc2nc(-c2ccccc2)n1NC(=S)Nc1ccccc1					> 100 µM						> 100 µM		> 100 µM	> 100 µM	> 100 µM	> 100 µM		> 100 µM		> 100 µM
Cc1cc(C)n(-c2nnc3n2N=C(c2ccc(-c4ccccc4)cc2)CS3)n1	3.82 µM	3.39 µM		3.66 µM	> 100 µM	3.35 µM	2.15 µM	4.05 µM	2.47 µM	> 100 µM	> 100 µM	3.11 µM	12.1 µM		> 100 µM	5.2 µM	> 100 µM	42.2 µM	4.99 µM	> 100 µM
CC(C(=O)n1c2ccccc2c2ccccc21)N(c1ccccc1)c1ccccc1 (stereo not drawn)					29.3 µM						32.7 µM		37.7 µM	30.5 µM	> 100 µM	34.7 µM		34.5 µM		32.3 µM
CC1=C(c2cc(C(=O)Nc3ccc(Cl)cc3)nc(=S)[nH]2)Sc2ccccc2N1											> 100 µM		> 100 µM	> 100 µM	> 100 µM	> 100 µM		> 100 µM		> 100 µM
COC(=O)c1cc(/C=C/c2ccc(S(N)(=O)=O)cc2)ccc1O	15.9 µM	20 µM	35.3 µM	73.1 µM	> 100 µM	27.5 µM	18.4 µM		28.1 µM	> 100 µM	> 100 µM	64.5 µM	> 100 µM	> 100 µM	66.4 µM	47.4 µM		> 100 µM	59.6 µM	> 100 µM
Cc1cc2c(nn1)-c1ccccc1C2=O					> 10 µM					> 10 µM	> 10 µM		> 10 µM	> 10 µM	> 10 µM	> 10 µM	> 10 µM	> 10 µM		
O=C(O)CN(c1ccccc1)S(=O)(=O)c1ccc([N+](=O)[O-])cc1					> 100 µM								> 100 µM	> 100 µM	> 100 µM	> 100 µM		> 100 µM		> 100 µM
